Data: publication PMC8294059, “Identification and Immune Assessment of T Cell Epitopes in Five Plasmodium falciparum Blood Stage Antigens to Facilitate Vaccine Candidate Selection and Optimization” (Frontiers in Immunology, 2021)
Where a SMILES comes first, the peptide text is derived from it.

These molecules were tested against HLA-A*2402 (Homo sapiens, UniProt P04439, D101N/D140Y/D185E/E176V/E190D/F33S/G103R/G107R/I119L/I121M/I306V/K335N/L105A/L180Q/L300P/N151K/N90K/Q86E/Q94H/R106L/R138H/R89G/T104I/T345S/V100E/W191G/Y123F) (assay: In vitro class I HLA binding assay (fluorescence polarization competition)). Conditions: allele A*2402; fluorescence polarization competition; read-out: IC50 (nM), in vitro HLA binding affinity.
Outline: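 Cell-free competition assay: HLA heat-treated 53°C for 15 min to strip endogenous peptides, then mixed with fluorescent high-affinity control peptide and test peptides for 72 h to equilibrium. Displacement read by fluorescence polarization as percent inhibition; IC50 derived from a concentration range.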
In the case of `CC[C@H](C)[C@H](NC(=O)[C@@H](NC(=O)[C@H](Cc1ccccc1)NC(=O)[C@@H](N)CC(=O)O)C(C)C)C(=O)N[C@H](C(=O)N1CCC[C@H]1C(=O)N[C@@H](Cc1c[nH]cn1)C(=O)N[C@@H](Cc1ccc(O)cc1)C(=O)N[C@H](C(=O)N[C@@H](Cc1ccccc1)C(=O)O)[C@@H](C)O)[C@@H](C)CC` [RH5_172] (H-DFVIIPHYTF-OH), the IC50 is reported as 289 nM. In the case of `CC[C@H](C)[C@H](NC(=O)[C@H](Cc1ccccc1)NC(=O)[C@H](CCCCN)NC(=O)[C@H](CCCCN)NC(=O)[C@H](Cc1c[nH]cn1)NC(=O)[C@H](Cc1ccccc1)NC(=O)[C@@H]1CCCN1)C(=O)N[C@@H](CO)C(=O)N[C@@H](Cc1ccccc1)C(=O)N[C@@H](Cc1ccccc1)C(=O)O` [CYRPA_004] (H-PFHKKFISFF-OH), the IC50 is reported as 35.6 nM. With `CC[C@H](C)[C@H](NC(=O)[C@H](CCC(=O)O)NC(=O)[C@H](CCC(=O)O)NC(=O)[C@H](CO)NC(=O)[C@@H](NC(=O)[C@H](CC(=O)O)NC(=O)[C@H](Cc1ccc(O)cc1)NC(=O)[C@H](CCCNC(=N)N)NC(=O)[C@H](Cc1ccc(O)cc1)NC(=O)[C@@H](N)CO)[C@@H](C)CC)C(=O)O` [RH5_251] (H-SYRYDISEEI-OH) the IC50 was 363 nM. Molecule `CC(C)[C@H](NC(=O)[C@H](CCCNC(=N)N)NC(=O)[C@H](Cc1ccc(O)cc1)NC(=O)[C@H](CS)NC(=O)[C@H](CO)NC(=O)[C@@H](NC(=O)[C@H](Cc1ccc(O)cc1)NC(=O)[C@H](C)N)C(C)C)C(=O)N[C@@H](CO)C(=O)N[C@@H](Cc1ccccc1)C(=O)O` [RIPR_0412] (H-AYVSCYRVSF-OH) has an IC50 of 56.9 nM. With `CC[C@H](C)[C@H](NC(=O)[C@H](Cc1ccccc1)NC(=O)[C@@H](N)CC(C)C)C(=O)N1CCC[C@H]1C(=O)N[C@@H](CO)C(=O)N[C@@H](Cc1c[nH]cn1)C(=O)N[C@@H](CC(N)=O)C(=O)N[C@@H](CO)C(=O)N[C@@H](Cc1ccccc1)C(=O)O` [RH5_098] (H-LFIPSHNSF-OH) the IC50 was 141 nM. `CC[C@H](C)[C@H](NC(=O)[C@H](Cc1ccccc1)NC(=O)[C@H](CC(C)C)NC(=O)[C@H](Cc1ccc(O)cc1)NC(=O)[C@@H](N)CCCCN)C(=O)N1CCC[C@H]1C(=O)N[C@@H](CO)C(=O)N[C@@H](Cc1c[nH]cn1)C(=O)N[C@@H](CC(N)=O)C(=O)O` [RH5_096] (H-KYLFIPSHN-OH) gave an IC50 of 6120 nM. `CC[C@H](C)[C@H](NC(=O)[C@H](Cc1ccc(O)cc1)NC(=O)[C@@H]1CCCN1)C(=O)N[C@@H](CO)C(=O)N[C@@H](CCCCN)C(=O)N[C@@H](Cc1ccc(O)cc1)C(=O)NCC(=O)N[C@@H](CC(N)=O)C(=O)N[C@@H](CCCCN)C(=O)N[C@@H](CC(C)C)C(=O)O` [RIPR_0664] (H-PYISKYGNKL-OH) showed an IC50 of 180 nM. In the case of `N=C(N)NCCC[C@H](NC(=O)CNC(=O)[C@H](Cc1ccccc1)NC(=O)[C@@H](N)CC(N)=O)C(=O)NCC(=O)N[C@@H](CCC(N)=O)C(=O)N[C@@H](CC(N)=O)C(=O)N[C@@H](Cc1ccc(O)cc1)C(=O)N[C@@H](Cc1c[nH]c2ccccc12)C(=O)O` [AMA1_020] (H-NFGRGQNYW-OH), the IC50 is reported as 229 nM. For `CSCC[C@H](NC(=O)[C@H](Cc1ccc(O)cc1)NC(=O)[C@@H](N)CC(N)=O)C(=O)NCC(=O)N[C@@H](CC(N)=O)C(=O)N1CCC[C@H]1C(=O)N[C@@H](Cc1c[nH]c2ccccc12)C(=O)N[C@H](C(=O)N[C@@H](CCC(=O)O)C(=O)O)[C@@H](C)O` [AMA1_104] (H-NYMGNPWTE-OH), the IC50 was 37900 nM. `CC[C@H](C)[C@H](N)C(=O)N[C@@H](Cc1ccccc1)C(=O)N[C@@H](Cc1c[nH]cn1)C(=O)N[C@@H](Cc1c[nH]cn1)C(=O)N[C@@H](CC(C)C)C(=O)N[C@H](C(=O)N[C@@H](Cc1ccc(O)cc1)C(=O)N[C@H](C(=O)N[C@@H](CC(C)C)C(=O)O)C(C)C)[C@@H](C)CC` [RH5_493] (H-IFHHLIYVL-OH) showed an IC50 of 9590 nM. Molecule `CC[C@H](C)[C@H](NC(=O)[C@@H](N)CCSC)C(=O)N[C@H](C(=O)N1CCC[C@H]1C(=O)N[C@@H](Cc1ccccc1)C(=O)N[C@@H](Cc1c[nH]cn1)C(=O)N[C@@H](CCCCN)C(=O)N[C@@H](CCCCN)C(=O)N[C@@H](Cc1ccccc1)C(=O)O)[C@@H](C)CC` [CYRPA_001] (H-MIIPFHKKF-OH) has an IC50 of 295 nM.
